Data published in patent publication US6495330B1, “Materials and methods relating to the diagnosis and treatment of pre-eclampsia and diabetes” (Rodaris Pharmaceuticals Limited, priority 1996, dated 2002).

Tested on: rat adipocytes
Assay: IPG A-type bioassay: stimulation of lipogenesis ([U14C] glucose into lipids) in adipocytes
Format: cell-based
Conditions: insulin standard assayed at the same time
Procedure: The activity of P- and A-type IPGs in urine and placental extracts were studied using specific bioassay procedures. IPG P-type was determined using the activation of PDH phosphatase. The PDH complex and PDH phosphatase (metal-dependent form) were prepared from beef heart as described by Lilley et al. and the assay of the activation of the phosphatase was performed by the spectrophotometric variant of the two-stage system described by these authors. This assay is considered to be a characteristic feature of IPG P-type (see Larner et al.) . IPG A-type was determined by the stimulation of lipogenesis as measured by the incorporation of [U^14C] glucose into the lipids of adipocytes isolated from epididymal fat pads by the method of Rodbell. A high degree of specificity for IPG A-type was found for this bioassay.
A straight line relationship between added IPGs and the stimulation of PDH phosphatase activity (IPG P-type) and lipogenesis in intact adipocytes (IPG A-type) was obtained; this relationship held at least up to a stimulation of +250%. These observations provided a basis for a unit to be defined and used for the purpose of comparison of yields of IPGs from different tissues and urine samples.
A unit of IPG is defined as the amount causing a 50% activation in the basal level of the test system.

insulin [insulin standard] was tested, and the “stimulation of lipogenesis above base-line” value was “+258%”.
